The target in data set [1] is T1, complement factor D (Homo sapiens, UniProt P00746).
T1 construct: purchased Complement tech
As to the kind of experiment: Complement factor D inhibitory activity (C3b method) in vitro screening; product Bb detected by ELISA. In kind it is biochemical. Particulars: factor D + factor B + factor C3b, 37° C., Bb by MicroVue Bb Plus ELISA. The text has this:
1. Complement Factor D Inhibitory Activity (C3b Method) In Vitro Screening Experiment
V-bottom plate (AXYGEN), DMSO (Sigma), MicroVue Bb Plus ELISA kit (Quidel), complement factor C3b (abbreviated as factor C3b, Complement tech), complement factor B (abbreviated as factor B, Complement tech), complement factor D (abbreviated as factor D, Complement tech), EDTA (MACKLIN), GVB^o (Complement tech), EGTA (Aladdin), MgCl2 (Aladdin), NaOH (Sinopharm), microplate reader (Molecular Devices, SpectraMax i3x), microplate thermostatic shaker (Thermo, MB100-2A), pipette (Gilson)
0.1 M Mg-EGTA: 3.8 g of EGTA, 0.9521 g of MgCl2, and 0.7 g of NaOH were weighed, and the pH was adjusted to 7.5 with NaOH. Distilled water was added to make up to 100 mL, and the mixture was filtered with a […] sterile needle filter, stored in portions at 4° C.
Buffer: 0.1 M Mg-EGTA solution was diluted 10-fold to 10 mM with GVB^o buffer; • factor B working solution: 1 mg/mL factor B solution (10.75 μM) was diluted 6.7-fold to 1.6 μM with buffer; • factor C3b working solution: 1 mg/mL factor C3b solution (5.68 μM) was diluted 5-fold to […] with buffer; • factor D working solution: 0.1 mg/mL factor D solution (4.17 μM) was diluted 1303-fold to 3.2 nM with buffer.
Note: a. The above dilution multiples are for reference only and are adjusted according to the true concentration labeled on the reagent; • b. factor B: 93 KDa, factor D: 24 KDa, factor C3b: 176 KDa.
Stop solution: An appropriate amount of EDTA powder was weighed, dissolved in a certain amount of GVB^o buffer, and the pH was adjusted to 7.5 with NaOH. The mixture was stirred until clear and prepared into a 10 mM solution.
Compound stock solution: 40 mM compound solution was diluted with DMSO into 1 mM stock solution, and the 1 mM stock solution was diluted 3-fold with DMSO at 8 points to prepare compound stock solutions of various concentrations.
Compound working solution: diluted 250-fold with buffer to obtain compound solutions of various concentrations.
In the V-bottom plate, the experimental group was added with 10 μL of factor D solution and 10 μL of compound solution; the positive control group was added with 10 μL of factor D solution and buffer containing 0.4% DMSO; the blank control group was added with […] containing 0.2% DMSO; incubated at 37° C. for 15 min; the factor B working solution and the factor C3b working solution were mixed homogeneously at a ratio of 1:1; 20 µL of the mixture was added to each well and incubated at 37° C. for 30 min; the reaction was stopped by adding 40 μL of stop solution; the production of product Bb was detected by MicroVue Bb Plus ELISA kit.
1.4.1 The required wells of the ELISA plate were taken out and allowed to return to room temperature, and the remaining ones were repackaged and stored at 4° C.;
1.4.2 the wells were washed twice with 300 μL of 1× wash buffer, and incubated for 1 min at 25° C. for the first wash;
1.4.3 samples were diluted 8-fold with complement specimen diluent, and 100 μL of sample was added to each well and incubated at 25° C. for 30 min;
1.4.4 the liquid in the wells was discarded, and the wells were washed 5 times with 300 μL of 1× wash buffer, and incubated at room temperature for 1 min for the first wash;
1.4.5 50 μL of Bb Plus Conjugate was added to each well and incubated at 25° C. for 30 min;
1.4.6 the liquid in the wells was discarded, and the wells were washed 5 times with 300 μL of 1× wash buffer, and incubated at room temperature for 1 min for the first wash;
1.4.7 100 μL of […] (Substrate Solution) was added to each well and incubated at 25° C. for 15 min;
1.4.8 100 μL of stop solution was added to each well, and the absorbance was detected at 450 nm within 30 min.
1.5.1 Inhibition rate of each drug concentration:
The PC group represents 0% inhibition rate, and the NC group represents 100% inhibition rate. […]
Background: In an ELISA, binding on a coated surface is turned into a signal by an enzyme label.

Data set [2] has as its system hemolysis of rabbit erythrocytes. As to the kind of experiment: Rabbit erythrocyte hemolysis assay to evaluate inhibitory activity on the bypass pathway. It is filed as cell-based. Particulars: Oryctolagus cuniculus, 0.5 h, 48% NHP or 26.4% NHS, 37° C. 30 min, absorbance 415 nm. The text has this:
2. Rabbit Erythrocyte Hemolysis Assay to Evaluate the Inhibitory Activity of Compounds on the Bypass Pathway
Normal Human Serum, NHS (collected from healthy people), Normal Human Plasma, NHP (Shanghai Yuduo), 96-well ELISA plate (Jet Biofil), Japanese big-eared white rabbit (Wuhan WQJX), Alsever's solution (Procell), centrifuge (Thermo, PICO17), thermostatic shaker (Shanghai Fuma), destaining shaker (Beijing Liuyi), cell counter (Invitrogen, Counter Countess II) (GVB^o, EGTA, MgCl2, NaOH, microplate reader, microplate thermostatic shaker, and pipette are equivalent to those in the experiment 1).
48% NHP: 100% NHP was diluted to 48% with buffer;
26.4% NPS: 100% NHS was diluted to 26.4% with buffer;
rabbit erythrocyte suspension: blood was taken from rabbit ear marginal vein, anticoagulated with Alsever's solution at a ratio of 1:1, stored in portions at 4° C., and could be stored for 4 weeks. Before use, the suspension was centrifuged at 500 g for 5 min to discard the Alsever's solution, washed three times with an equal volume of buffer and centrifuged at 500 g for 5 min, and finally the density was adjusted to 6×10^8 cells/mL with buffer.
In the 96-well ELISA plate, the experimental group was added with 50 μL of 48% NHP or 26.4% NHS and 50 μL of compound solution; the positive control group was added with 50 μL of 48% NHP or 26.4% NHS and 50 μL of buffer containing 0.2% DMSO; the blank control group was added with 50 μL of 48% inactivated NHP or 26.4% inactivated NHS and 0.2% DMSO buffer; the H2O group was added with 100 μL of double-distilled water; incubated at 37° C. for 15 min; 20 μL of rabbit erythrocyte suspension was added to each well and incubated on a shaker at 37° C. for 30 min; centrifuged at 2000 g (3380 rpm) for 5 min, and […] of supernatant was transferred to a new 96-well ELISA plate, and the absorbance was detected at 415 nm.
The PC group represents 100% hemolysis, and the NC group represents 0% hemolysis.
IC50: half-maximal inhibitory concentration. Data were collected to calculate the log value of hemolysis percentage versus compound concentration, and IC50 values were calculated using GraphPad Prism software.

Data set [3] can be described thus: In vivo pharmacokinetic study (PK assay on SD rats). Particulars: Sprague-Dawley, rat, plasma; for bioavailability: read-out: Oral bioavailability F. On the procedure: 3. In Vivo Pharmacokinetic Study of the Compounds of the Present Disclosure
After adaptive domestication, SPF grade SD rats were administered 1 or 3 mg/kg the compounds of the present disclosure by single gavage and tail vein injection, respectively. Plasma was collected at specific time points after administration, and the concentration of compounds in plasma was detected by LC-MS/MS (AB SCIEX Qtrap4500). The PK parameters of each compound were calculated using software to reflect the pharmacokinetic properties of the compounds of the present disclosure in vivo in animals.

Setting [4] is: PO (3% DMSO + 4% Tween), 1 mg/kg.
The mark [5] stands for this setting: PO (3% DMSO + 4% Tween), 3 mg/kg.

pIC50: −log10 of the molar value. Read-outs that look alike come from different tables or passages of the source.

T1 sequence (P00746 26-253): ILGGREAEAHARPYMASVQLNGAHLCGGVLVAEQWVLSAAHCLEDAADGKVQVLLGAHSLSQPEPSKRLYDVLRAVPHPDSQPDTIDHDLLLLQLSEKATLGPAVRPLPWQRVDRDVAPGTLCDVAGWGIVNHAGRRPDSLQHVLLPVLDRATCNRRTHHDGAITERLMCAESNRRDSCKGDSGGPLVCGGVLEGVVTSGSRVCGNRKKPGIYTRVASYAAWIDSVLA

Usually pIC50 stands for the IC50 on a negative log10 scale, so that one unit is a factor of ten. One may read the AUC(0-t) as the area under the concentration-time curve up to a stated or last time point. In general, Cmax refers to the maximum level reached in the sampled fluid or tissue. A word on the half-life: it is how long it takes for the measured level to halve. For orientation: bioavailability means the share of a dose that reaches the circulation, judged against a reference dose that is usually intravenous. Consider `NCc1cccc(-c2cc(COc3ccccc3CC(=O)O)cc(N3CCC4(CC3)CC4)c2)c1F` [Compound 007, 2-(2-((3′-(aminomethyl)-2′-fluoro-5-(6-azaspiro[2.5]octan-6-yl)-[1,1′-biphenyl]-3-yl)methoxy)phenyl)acetic acid], for which the negative logarithm of the IC50 (pIC50) in data set [1] was 7.92. In data set [2], this compound had a pIC50 of 7.23. In data set [3] (IV, 1 mg/kg), this compound had an AUC(0-t) of 3290 ng·h/mL, a Cmax of 3270 ng/mL and a half-life of 0.64 h. In addition, the bioavailability in data set [3] (PO 1 mg/kg vs IV 1 mg/kg) worked out at 70.2%. For the same compound, in data set [3] (setting [4]), the AUC(0-t) was 2310 ng·h/mL, the Cmax was 936 ng/mL and the half-life is 1.46 h.

Take `NCc1nccc(-c2cc(COc3ccccc3CC(=O)O)cc(N3CCC4(CC3)CC4)c2)c1F` [Compound 023, 2-(2-((3-(2-(aminomethyl)-3-fluoropyridin-4-yl)-5-(6-azaspiro[2.5]octan-6-yl)benzyl)oxy)phenyl)acetic acid]: in data set [1], the pIC50 is 7.82. Moreover, the negative-log IC50 (pIC50) in data set [2] is 7.12. In data set [3] (IV, 1 mg/kg), this compound gave an AUC(0-t) of 7060 ng·h/mL, a Cmax of 3410 ng/mL and a half-life of 4.58 h. Also, the bioavailability in data set [3] (PO 3 mg/kg vs IV 1 mg/kg) was found to be 35.3%. Further, in data set [3] (setting [5]), the AUC(0-t) amounted to 7480 ng·h/mL, the Cmax worked out at 1020 ng/mL and the half-life is 4.1 h.

Take `NCc1cccc(-c2cc(COc3ccccc3CC(=O)O)cc(N3CCCC4(CC4)C3)c2)c1` [Compound 004, 2-(2-((3′-(aminomethyl)-5-(5-azaspiro[2.5]octan-5-yl)-[1,1′-biphenyl]-3-yl)methoxy)phenyl)acetic acid]: the pIC50 is 7.72 in data set [1] and 7.44 in data set [2].

As for `NCc1cccc(-c2cc(COc3ccccc3CC(=O)O)cc(N3CCC4(CCCC4)C3)c2)c1` [Compound 034], the pIC50 was 9.00 in data set [1] and 7.96 in data set [2].

For the compound `NCc1cccc(-c2cc(COc3cc(F)ccc3CC(=O)O)cc(N3CCC4(CC3)CC4)c2)c1F` [Compound 021, 2-(2-((3′-(aminomethyl)-2′-fluoro-5-(6-azaspiro[2.5]octan-6-yl)-[1,1′-biphenyl]-3-yl)methoxy)-4-fluorophenyl)acetic acid], the pIC50 was 7.96 in data set [1] and 7.19 in data set [2].

As for `NCc1cccc(-c2cc(COc3ccccc3CC(=O)O)cc(N3CCC4(CCNCC4)CC3)c2)c1` [Compound 033, 2-(2-((3′-(aminomethyl)-5-(3,9-diazaspiro[5.5]undecan-3-yl)-[1,1′-biphenyl]-3-yl)methoxy)phenyl)acetic acid], the figures for the pIC50 in data set [1] and in data set [2] were 8.70 and 8.52, respectively.

On to `NCc1cccc(-c2cc(COc3ccccc3CC(=O)O)cc(N3CCC4(CC3)CC4)c2)c1` [Compound 001, 2-(2-((3′-(aminomethyl)-5-(6-azaspiro[2.5]octan-6-yl)-[1,1′-biphenyl]-3-yl)methoxy)phenyl)acetic acid], for which the pIC50 in data set [1] was 8.00. In data set [2], this compound had a negative logarithm of the IC50 (pIC50) of 7.39. In data set [3] (IV, 1 mg/kg), this compound had an AUC(0-t) of 8030 ng·h/mL, a Cmax of 1800 ng/mL and a half-life of 3.59 h. Also, in data set [3] (PO 1 mg/kg vs IV 1 mg/kg), the bioavailability was found to be 40.3%. Moreover, in data set [3] (setting [4]), the AUC(0-t) is 3240 ng·h/mL, the Cmax turned out to be 577 ng/mL and the half-life is 4.13 h.

On to `NCc1cccc(-c2cc(COc3ccccc3CC(=O)O)cc(N3CCC4(CCOC4)CC3)c2)c1` [Compound 014, 2-(2-((3′-(aminomethyl)-5-(2-oxa-8-azaspiro[4.5]decan-8-yl)-[1,1′-biphenyl]-3-yl)methoxy)phenyl)acetic acid], for which the pIC50 in data set [1] is 7.85; in data set [2], 8.00.

For the compound `NCc1cccc(-c2cc(COc3ccccc3CC(=O)O)cc(N3CCC4(CC3)COC4)c2)c1F` [Compound 024, 2-(2-((3′-(aminomethyl)-2′-fluoro-5-(2-oxa-7-azaspiro[3.5]nonan-7-yl)-[1,1′-biphenyl]-3-yl)methoxy)phenyl)acetic acid], the values for the pIC50 in data set [1] and in data set [2] were 8.40 and 7.57, respectively.

Consider `NCc1cccc(-c2cc(COc3ccccc3CC(=O)O)cc(N3CCC4(CCCOC4)CC3)c2)c1` [Compound 030, 2-(2-((3′-(aminomethyl)-5-(2-oxa-9-azaspiro[5.5]undecan-9-yl)-[1,1′-biphenyl]-3-yl)methoxy)phenyl)acetic acid], for which the pIC50 in data set [1] is 8.40; in data set [2], 7.66.

The values above are taken from patent US20240391877A1, “COMPOUND AS INHIBITOR OF COMPLEMENT FACTOR D, AND PHARMACEUTICAL COMPOSITION AND USE THEREOF” (WUHAN CREATERNA SCIENCE AND TECHNOLOGY CO.,LTD., priority 2021, published 2024).
